Consider 24 compounds from patent US6638973B2, “Taxane formulations” (FSU Research Foundation, Inc., priority 2000, dated 2003).

SMILES strings stand for the structures.

For one data set, the system named is HCT116 cells. The data set can be described thus: In vitro cytotoxicity measured by the cell colony formation assay. It counts as cell-based. The conditions noted are these: HCT116 cells, 72 h drug incubation, colonies counted after 7 days; ID50 = drug concentration producing 50% inhibition of colony formation; read-out: IN VITRO ID 50 (nm) HCT116. The essentials: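 Colony-forming survival was scored 7 days after a 72 h, 37 °C compound exposure followed by washout into fresh medium.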
As to `C/C=C/C(=O)N[C@@H](c1ccco1)[C@@H](O)C(=O)O[C@H]1C[C@@]2(O)[C@@H](OC(=O)c3ccccc3)C3[C@](C)(C(=O)[C@H](O)C(=C1C)C2(C)C)[C@@H](OC(=O)NC1CCCCC1)C[C@H]1OC[C@@]31OC(C)=O` (stereo partly drawn) [Compound 5895], the IC50 is under 1 nM. Turning to `CCC(C)(C)OC(=O)N[C@@H](c1ccco1)[C@@H](O)C(=O)O[C@H]1C[C@@]2(O)[C@@H](OC(=O)c3ccccc3)C3[C@](C)(C(=O)[C@H](O)C(=C1C)C2(C)C)[C@@H](OC(=O)Nc1ccc(F)c(F)c1)C[C@H]1OC[C@@]31OC(C)=O` (stereo partly drawn) [Compound 6404], the IC50 is under 10 nM. Same read-out and setting: under `CC(=O)O[C@@]12CO[C@@H]1C[C@H](OC(=O)NC(C)(C)C)[C@@]1(C)C(=O)[C@H](O)C3=C(C)[C@@H](OC(=O)[C@H](O)[C@@H](NC(=O)OC(C)(C)C)c4ccco4)C[C@@](O)([C@@H](OC(=O)c4ccccc4)C12)C3(C)C` (stereo partly drawn) [Compound 5454] stands under 10 nM.

Staying with this data set, now noted: HCT116 cells, 72 h incubation with drug, colonies counted after 7 days; ID50 = drug concentration producing 50% inhibition of colony formation; read-out: IN VITRO ID 50 (nm) HCT116.
Turning to `COC(=O)O[C@H]1C[C@H]2OC[C@@]2(OC(C)=O)C2[C@H](OC(=O)c3ccccc3)[C@]3(O)C[C@H](OC(=O)[C@H](O)[C@@H](NC(=O)OC(C)(C)C)c4ccco4)C(C)=C([C@@H](O)C(=O)[C@@]21C)C3(C)C` (stereo partly drawn) [Compound 4575], the IC50 was under 1 nM.

With `CCOC(=O)O[C@H]1C(=O)[C@@]2(C)C([C@H](OC(=O)c3ccccc3)[C@]3(O)C[C@H](OC(=O)[C@H](O)[C@@H](NC(=O)OC(C)(C)C)c4cccnc4)C(C)=C1C3(C)C)[C@]1(OC(C)=O)CO[C@@H]1C[C@@H]2O` (stereo partly drawn) [Compound 1808], the IC50 is under 10 nM. `CCOC(=O)O[C@H]1C(=O)[C@@]2(C)C([C@H](OC(=O)c3ccccc3)[C@]3(O)C[C@H](OC(=O)[C@H](O)[C@@H](NC(=O)OC(C)(C)C)C4CCC4)C(C)=C1C3(C)C)[C@]1(OC(C)=O)CO[C@@H]1C[C@@H]2O` (stereo partly drawn) [Compound 1855]: the IC50 is under 10 nM.

Still in this data set, the particulars now being: HCT116 colony formation; 72 h drug incubation, colonies counted after 7 days; Example 5, C-7 ester/C-10 hydroxy taxanes; read-out: IN VITRO ID 50 (nm) HCT116.
For the compound `CCCC(=O)O[C@H]1C[C@H]2OC[C@@]2(OC(C)=O)C2[C@H](OC(=O)c3ccccc3)[C@]3(O)C[C@H](OC(=O)[C@H](O)[C@@H](NC(=O)OC(C)(C)C)c4ccoc4)C(C)=C([C@@H](O)C(=O)[C@@]21C)C3(C)C` (stereo partly drawn) [Compound 4394], the IC50 was under 1 nM. The same measure, in the same setting: under `CCCC(=O)O[C@H]1C[C@H]2OC[C@@]2(OC(C)=O)C2[C@H](OC(=O)c3ccccc3)[C@]3(O)C[C@H](OC(=O)[C@H](O)[C@@H](NC(=O)OC=C(C)C)c4ccco4)C(C)=C([C@@H](O)C(=O)[C@@]21C)C3(C)C` (stereo partly drawn) [Compound 6181] stands under 1 nM. As for `CCOC(=O)N[C@@H](c1cccs1)[C@@H](O)C(=O)O[C@H]1C[C@@]2(O)[C@@H](OC(=O)c3ccccc3)C3[C@](C)(C(=O)[C@H](O)C(=C1C)C2(C)C)[C@@H](OC(=O)CC)C[C@H]1OC[C@@]31OC(C)=O` (stereo partly drawn) [Compound 4044], the IC50 is under 1 nM. On to `CC(=O)O[C@@]12CO[C@@H]1C[C@H](OC(=O)C(C)C)[C@@]1(C)C(=O)[C@H](O)C3=C(C)[C@@H](OC(=O)[C@H](O)[C@@H](NC(=O)OC(C)(C)C)c4cccs4)C[C@@](O)([C@@H](OC(=O)c4ccccc4)C12)C3(C)C` (stereo partly drawn) [Compound 6333], for which the IC50 was under 1 nM.

Turning to `CCC(=O)O[C@H]1C[C@H]2OC[C@@]2(OC(C)=O)C2[C@H](OC(=O)c3ccccc3)[C@]3(O)C[C@H](OC(=O)[C@H](O)[C@H](C=C(C)C)NC(=O)OCC(C)C)C(C)=C([C@@H](O)C(=O)[C@@]21C)C3(C)C` (stereo partly drawn) [Compound 5121], the IC50 was 21.1 nM. On to `CCC(=O)O[C@H]1C[C@H]2OC[C@@]2(OC(C)=O)C2[C@H](OC(=O)c3ccccc3)[C@]3(O)C[C@H](OC(=O)[C@H](O)[C@@H](NC(=O)OCC(C)C)c4ccsc4)C(C)=C([C@@H](O)C(=O)[C@@]21C)C3(C)C` (stereo partly drawn) [Compound 4544], for which the IC50 is under 10 nM.

Staying with this data set, now noted: HCT116 colony formation; 72 h drug incubation, colonies counted after 7 days; Example 10, C-10 ester/C-7 hydroxy taxanes; read-out: IN VITRO ID 50 (nm) HCT116.
`CC(=O)O[C@@]12CO[C@@H]1C[C@H](O)[C@@]1(C)C(=O)[C@H](OC(=O)C3CC3)C3=C(C)[C@@H](OC(=O)[C@H](O)[C@@H](NC(=O)c4ccco4)c4cccs4)C[C@@](O)([C@@H](OC(=O)c4ccccc4)C12)C3(C)C` (stereo partly drawn) [Compound 3297]: the IC50 is under 1 nM.

Regarding `C/C=C/C(=O)O[C@H]1C(=O)[C@@]2(C)C([C@H](OC(=O)c3ccccc3)[C@]3(O)C[C@H](OC(=O)[C@H](O)[C@@H](NC(=O)OC(C)(C)C)c4ccco4)C(C)=C1C3(C)C)[C@]1(OC(C)=O)CO[C@@H]1C[C@@H]2O` (stereo partly drawn) [Compound 2379], the IC50 was under 1 nM. Still for that read-out and setting: under `CC(=O)O[C@@]12CO[C@@H]1C[C@H](O)[C@@]1(C)C(=O)[C@H](OC(=O)C3CC3)C3=C(C)[C@@H](OC(=O)[C@H](O)[C@H](C=C(C)C)NC(=O)OCC(C)C)C[C@@](O)([C@@H](OC(=O)c4ccccc4)C12)C3(C)C` (stereo partly drawn) [Compound 4720] stands under 10 nM. On the same count and under the same terms, under `CC(=O)O[C@@]12CO[C@@H]1C[C@H](O)[C@@]1(C)C(=O)[C@H](OC(=O)C=C(C)C)C3=C(C)[C@@H](OC(=O)[C@H](O)[C@@H](NC(=O)OC(C)(C)C)c4ccccc4)C[C@@](O)([C@@H](OC(=O)c4ccccc4)C12)C3(C)C` (stereo partly drawn) [Compound 2520] stands under 10 nM. Take `CCCC(=O)O[C@H]1C(=O)[C@@]2(C)C([C@H](OC(=O)c3ccccc3)[C@]3(O)C[C@H](OC(=O)[C@H](O)[C@@H](NC(=O)c4ccco4)c4ccco4)C(C)=C1C3(C)C)[C@]1(OC(C)=O)CO[C@@H]1C[C@@H]2O` (stereo partly drawn) [Compound 3686]: the IC50 is under 1 nM. As to `CCC(=O)O[C@H]1C(=O)[C@@]2(C)C([C@H](OC(=O)c3ccccc3)[C@]3(O)C[C@H](OC(=O)[C@H](O)[C@@H](NC(=O)c4ccccc4)C4CC4)C(C)=C1C3(C)C)[C@]1(OC(C)=O)CO[C@@H]1C[C@@H]2O` (stereo partly drawn) [Compound 0706], the IC50 was under 1 nM.

Consider `CC(=O)O[C@@]12CO[C@@H]1C[C@H](O)[C@@]1(C)C(=O)[C@H](OC(=O)C3CC3)C3=C(C)[C@@H](OC(=O)[C@H](O)[C@@H](NC(=O)c4cccs4)c4ccco4)C[C@@](O)([C@@H](OC(=O)c4ccccc4)C12)C3(C)C` (stereo partly drawn) [Compound 3663], for which the IC50 was under 1 nM. On the same count and under the same terms, under `CCC(=O)O[C@H]1C(=O)[C@@]2(C)C([C@H](OC(=O)c3ccccc3)[C@]3(O)C[C@H](OC(=O)[C@H](O)[C@@H](NC(=O)c4cccnc4)c4cccs4)C(C)=C1C3(C)C)[C@]1(OC(C)=O)CO[C@@H]1C[C@@H]2O` (stereo partly drawn) [Compound 4121] stands under 10 nM; under `CC(=O)OC12COC1CC(O)C1(C)C(=O)C(OC(=O)c3ccco3)C3=C(C)C(OC(=O)C(O)C(NC(=O)OC(C)(C)C)c4cccnc4)CC(O)(C(OC(=O)c4ccccc4)C21)C3(C)C` (stereo not drawn) [Compound 2124], under 10 nM; under `CC(=O)O[C@@]12CO[C@@H]1C[C@H](O)[C@@]1(C)C(=O)[C@H](OC(=O)C3CC3)C3=C(C)[C@@H](OC(=O)[C@H](O)[C@@H](NC(=O)OC(C)(C)C)c4ccccc4)C[C@@](O)([C@@H](OC(=O)c4ccccc4)C12)C3(C)C` (stereo partly drawn) [Compound 0882], under 1 nM. Same read-out and setting: under `CC(=O)O[C@@]12CO[C@@H]1C[C@H](O)[C@@]1(C)C(=O)[C@H](OC(=O)C(C)C)C3=C(C)[C@@H](OC(=O)[C@H](O)[C@@H](NC(=O)OC(C)(C)C)C(C)C)C[C@@](O)([C@@H](OC(=O)c4ccccc4)C12)C3(C)C` (stereo partly drawn) [Compound 2306] stands under 10 nM.

System in another data set: not given
Assay: not given
The conditions noted are these: intravenous, concentrations required to deliver therapeutic doses of paclitaxel; cited from earlier work.
Consider `CC(=O)OCC(COC(C)=O)OC(C)=O` [triacetin, glyceryl triacetate], for which the toxicity to mice result is “toxic”.
